One test relates to 23S rRNA. To be noted: cited from earlier work.
Test [1] has as its system HLAR, High level Aminoglycoside Resistance in Enterococci. Put plainly: Binding of fluorescently labelled antibiotic, resistant vs non-resistant form (Table 3). The test is classed as cell-based. Conditions: resistant relative to non-resistant form. How it is done: (§1) Table 3: Antibiotic resistance mechanism in clinically relevant micro-organisms and alteration in the amount of antibiotics in resistant micro-organisms. The alteration of the amount of detectable labelled antibiotics in micro-organisms in its resistant form is determined relative to its non-resistant form. The amount is expressed in % change of fluorescence (decrease and increase, respectively) of an antibiotic which carries a fluorescent label.

Test [2] concerns VRE, Vancomycin resistant Enterococci. To be noted: mechanism column; reduction of affinity in resistant form; cited from earlier work.
The test system is the same in test [3]. The experiment in a line: Binding of fluorescently labelled antibiotic, resistant vs non-resistant form (Table 3). To be noted: resistant relative to non-resistant form. Format: cell-based. The method, then:
as §1

The test system of test [4] is VISA, Vancomycin intermediary SA. Described as above. The test is classed as cell-based, Staphylococcus aureus. To be noted: increased binding; fluorescent-labelled antibiotic, resistant relative to non-resistant form. The method, then:
as §1

For test [5], the system named is VRS, Vancomycin resistant Staph. Described as above. Format: cell-based, Staphylococci (CNS). To be noted: increased binding; fluorescent-labelled antibiotic, resistant relative to non-resistant form. The method, then: as §1
The test system of test [6] is ESBL, Extended Spectrum β-Lactamase BCC. Described as above. To be noted: increase of binding; fluorescent-labelled antibiotic, resistant relative to non-resistant form. The test is classed as cell-based. How it is done: as §1
For test [7], the system named is ESBL, Extended Spectrum β-Lactamase Stenotrophomonas maltophilla. Described as above. To be noted: increase of binding; fluorescent-labelled antibiotic, resistant relative to non-resistant form. Format: cell-based. How it is done:
as §1

Test [8] deals with ESBL, Extended Spectrum β-Lactamase Acinetobacter. The description is as above. The test is classed as cell-based. Conditions: increase of binding; fluorescent-labelled antibiotic, resistant relative to non-resistant form. The method, then: as §1
Test [9] deals with ESBL, Extended Spectrum β-Lactamase Pseudomonas spp. Described as above. The test is classed as cell-based. To be noted: increase of binding; fluorescent-labelled antibiotic, resistant relative to non-resistant form. The method, then: as §1
Test [10] relates to ESBL, Extended Spectrum β-Lactamase Enterobacteriaceae. The description is as above. The test is classed as cell-based. To be noted: increase of binding; fluorescent-labelled antibiotic, resistant relative to non-resistant form. How it is done:
as §1

Test [11] relates to CA-MRSA, Community acquired MRSA. Format: cell-based, Staphylococcus aureus. Conditions: resistant relative to non-resistant form. The method, then:
as §1

Test [12] deals with BORSA, Border line oxacillin resistant SA. The experiment in a line: Binding of fluorescently labelled antibiotic, resistant vs non-resistant form (Table 3). Format: cell-based, Staphylococcus aureus. Conditions: resistant relative to non-resistant form. How it is done: as §1
In test [13] the test system is MRSA, Methicillin Resistant SA. Described as above. The test is classed as cell-based, Staphylococcus aureus. To be noted: resistant relative to non-resistant form. How it is done: as §1
Test [14] has as its system ORSA, Oxacillin resistant SA. The test is described as above. The test is classed as cell-based, Staphylococcus aureus. To be noted: resistant relative to non-resistant form. How it is done:
as §1

The mark [15] stands for this setting: reduction of binding, fluorescent-labelled antibiotic.

This is an account of results in patent publication US20140295417A1, “IDENTIFICATION OF ANTIBIOTIC RESISTANCE” (priority 2011, published 2014).

Like-named read-outs stand apart in the source and are kept apart here. Where a SMILES comes first, the peptide text is derived from it. Bridges are numbered along the chain shown (N, C = ends). [ ]: non-standard residue; d: D form. The star is where a group is joined. NMePhe(4-NMe2) = CN[C@@H](Cc1ccc(N(C)C)cc1)C(=O)O; Pip(4-oxo) = O=C1CCN[C@H](C(=O)O)C1; Picolinoyl(3-OH) = O=C(c1ncccc1O)*; Phg = N[C@H](C(=O)O)c1ccccc1; dAbu = CC[C@@H](N)C(=O)O

Consider `[H]/N=C(/N)N[C@H]1[C@H](O)[C@@H](O)[C@H](O[C@@H]2O[C@@H](C)[C@](O)(C=O)[C@H]2O[C@@H]2O[C@@H](CO)[C@H](O)[C@@H](O)[C@@H]2NC)[C@@H](N/C(N)=N\[H])[C@@H]1O` [Streptomycin], for which the Phenotype entry in the test on 23S rRNA (23S rRNA position 2661, "G to C", E. coli, when expressed with Smr, hyperaccurate S12 mutation) is recorded as “streptomycin dependent”. Also, the “% Change in Fluorescenc” value in test [1] (setting [15]) is >80% reduction. In test [1], the “Effect of resistance on fluorescence” value was “Reduction in Streptomycin binding”.
Consider `CN[C@H](CC(C)C)C(=O)N[C@H]1C(=O)N[C@@H](CC(N)=O)C(=O)N[C@H]2C(=O)N[C@H]3C(=O)N[C@H](C(=O)N[C@H](C(=O)O)c4cc(O)cc(O)c4-c4cc3ccc4O)[C@H](O)c3ccc(c(Cl)c3)Oc3cc2cc(c3O[C@@H]2O[C@H](CO)[C@@H](O)[C@H](O)[C@H]2O[C@H]2C[C@](C)(N)[C@H](O)[C@H](C)O2)Oc2ccc(cc2Cl)[C@H]1O` [Vancomycin], for which, in test [2], the “Reduced affinity to Van” value is given as “Reduced affinity to Van by 3 orders of magnitude”. Moreover, the “% Change in Fluorescenc” value was >80% in [3] (setting [15]), 20-50% in [4] and >50% in test [5]. In addition, the “Effect of resistance on fluorescence” value in test [3] is on record as “Reduction of vancomycin”.
For the molecule `O=C(O)[C@H]1/C(=C/CO)O[C@@H]2CC(=O)N21` [clavulanic acid], the “% Change in Fluorescenc” value in [6], in test [7], in [8], in test [9] and in [10] was >80% throughout.
For the molecule `CC[C@H]1OC(=O)[C@H](C)[C@@H](O[C@H]2C[C@@](C)(OC)[C@@H](O)[C@H](C)O2)[C@H](C)[C@@H](O[C@@H]2O[C@H](C)C[C@H](N(C)C)[C@H]2O)[C@](C)(O)C[C@@H](C)C(=O)[C@H](C)[C@@H](O)[C@]1(C)O` [eyrthomycin], the “Phenotype: growth rate” value in the test with 23S rRNA (23S rRNA 2017 U to G, E. coli) is given as “Reduced growth”.
For the molecule `CCC[C@@H]1C[C@@H](C(=O)N[C@@H]([C@H]2O[C@H](SC)[C@H](O)[C@@H](O)[C@H]2O)[C@@H](C)O)N(C)C1` [lincomycin], the Phenotype result in the test on 23S rRNA (23S rRNA position 2611, "C to G", Chlamydomonas reinhardtii (Harris et al. 1989)) was “low level”; in the test on 23S rRNA (23S rRNA position 2611, "C to U", Chlamydomonas reinhardtii (Harris et al. 1989)), “low level”.
With `CC[C@H]1NC(=O)[C@@H](NC(=O)c2ncccc2O)[C@@H](C)OC(=O)[C@H](c2ccccc2)NC(=O)[C@@H]2CC(=O)CCN2C(=O)[C@H](Cc2ccc(N(C)C)cc2)N(C)C(=O)[C@@H]2CCCN2C1=O` [pristinamycin 1A] ({Picolinoyl(3-OH)}-T[dAbu]P[NMePhe(4-NMe2)][Pip(4-oxo)][Phg]; ester 1-C), the “Phenotype (binding on peptidyl transferase loop)” value is on record as “Inhibits binding of 1A” in the test with 23S rRNA (23S rRNA position 2500, U2500A/C2501A, E. coli) and “Inhibits binding of 1A” with 23S rRNA (23S rRNA position 2602, A2602C/C2501A, E. coli).
As to `CSC[S@+]([O-])C[C@H](CO)NC(=O)/C=C/c1c(C)[nH]c(=O)[nH]c1=O` [sparsomycin], the “Phenotype (resistance)” value in the test on 23S rRNA (23S rRNA position 2452 "C to U", Halobacterium halobium (Tan et al. 1996)) was “Low level sparsomycin”.
For `C=C(NC(=O)C(=C)NC(=O)c1csc(C2=N[C@@H]3c4csc(n4)[C@H]4NC(=O)c5csc(n5)[C@H]([C@](C)(O)[C@@H](C)O)NC(=O)[C@H]5CSC(=N5)/C(=C/C)NC(=O)[C@H]([C@@H](C)O)NC(=O)c5csc(n5)[C@]3(CC2)NC(=O)[C@H](C)NC(=O)C(=C)NC(=O)[C@H](C)NC(=O)[C@H]([C@@H](C)CC)N[C@@H]2C=Cc3c([C@H](C)O)cc(nc3[C@H]2O)C(=O)O[C@@H]4C)n1)C(N)=O` [thiostrepton], the “Phenotype: binding of thiostrepton” value with 23S rRNA (23S rRNA 1056 G to C, E. coli, RNA fragments) is recorded as “weakened in RNA”. Besides, the “Phenotype: drug binding affinity” value is “affinity is reduced similarly” in the test on 23S rRNA (23S rRNA 1067 A to C, E. coli); “affinity is reduced similarly” in the test on 23S rRNA (23S rRNA 1067 A to G, E. coli); “affinity is reduced similarly” in the test with 23S rRNA (23S rRNA 1067 A to U, E. coli). Besides, the “Phenotype: level of resistance” value was “A to C or U confers high” with 23S rRNA (23S rRNA 1067 A to C, E. coli); “confers intermediate level” in the test on 23S rRNA (23S rRNA 1067 A to G, E. coli); “A to C or U confers high” in the test on 23S rRNA (23S rRNA 1067 A to U, E. coli). The “Phenotype: thiostrepton resistance in poly (U) translation” value in the test on 23S rRNA (23S rRNA 1067 A to U, E. coli, mutant constituted 30% of the total 23S rRNA pool in the ribosomes) is reported as “ribosomes; exhibited 30%”.
Turning to `COc1cc(Cc2cnc(N)nc2N)cc(OC)c1OC` [trimethoprim], in test [11], the “Effect of resistance on fluorescence” value was “binding. Maintaims binding”.
On to Penicillin [listing 1 of 2 here], for which the “% Change in Fluorescenc” value in [11] (setting [15]), in test [12] (setting [15]), in [13] (setting [15]) and in [14] (setting [15]) was “> to ≈80%” each time. Moreover, the “Effect of resistance on fluorescence” value in test [13] was “Reduction of Penicillin binding”.
With Penicillin [listing 2 of 2 here], the “Effect of resistance on fluorescence” value in test [11], in [12] and in test [14] was “Reduction of Penecillin” each time.
Consider spiramycin, for which the Phenotype result is listed as “spiramycin resistance” in the test with 23S rRNA (23S rRNA position 2611, "C to G", Chlamydomonas reinhardtii (Gauthier et al. 1988)); “spiramycin resistance” in the test with 23S rRNA (23S rRNA position 2611, "C to G", Yeast mitochondria (Sor and Fukahara 1984)).
